The structures appear in SMILES notation.

The target of the experiment is T1, synthetic Aβ 1-40 (Homo sapiens, UniProt P05067).
T1 construct: synthetic Aβ 1-40
T1 sequence (P05067 672-711 limits assumed): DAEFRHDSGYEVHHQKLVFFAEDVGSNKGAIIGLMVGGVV
The experiment is described as follows: Competition binding assay ([3H]PIB as radioligand). To be noted: 2.7 nM [3H]PIB radioligand, phosphate buffer pH 7.5, 30 min room temperature. On the procedure:
Competition binding was performed in 384-well FB filter plates using synthetic Aβ 1-40 in 2.7 nM of [^3H]PIB (or another ^3H-labeled radioligand when so mentioned) in phosphate buffer at pH 7.5, by adding various concentrations of non-radioactive compounds originally dissolved in DMSO. The binding mixture was incubated for 30 min at room temperature, followed by vacuum filtration, and subsequentially by washing twice with 1% Triton-X100. Scintillation fluid was thereafter added to the collected Aβ 1-40 on the filter plate, and the activity of the bound remaining radioligand ([^3H]PIB or another ^3H-labeled radioligand) was measured using 1450 Microbeta from PerkinElmer. Specific binding was determined according to the competion binding assay described herein. The determined IC50's in the competion binding assays (using [^3H]PIB as radioligand) of compounds of the present invention are shown in Table 1.
For the compound `COc1ccc2nc(-c3cc4ccccc4o3)cn2c1` [2-(1-benzofuran-2-yl)-6-methoxyimidazo[1,2-a]pyridine], the IC50 (as a rule, the concentration that gives 50% inhibition) worked out at 361 nM.

Regarding `CNc1ccc(-c2cc3cc(O)ccc3o2)c(F)n1` [2-(2-Fluoro-6-methylamino-pyridin-3-yl)-benzofuran-5-ol], the IC50 came to 18 nM.

`CNc1ncc(-c2cc3cc(O)ccc3o2)cc1F` [2-(5-fluoro-6-methylamino-pyridin-3-yl)-benzofuran-5-ol]: the IC50 worked out at 32 nM.

The compound `Nc1ccc(-c2cc3cc(O)ccc3o2)nn1` [2-(6-Amino-pyridazin-3-yl)-benzofuran-5-ol] had an IC50 of 2710 nM.

`CNc1ccc(-c2cc3cc(O)ccc3o2)nc1F` [2-(6-Fluoro-5-methylamino-pyridin-2-yl)-benzofuran-5-ol]: the IC50 is 44 nM.

In turn, `CNc1ccc(-c2cc3cc(O)ccc3o2)cn1` [2-(6-Methylamino-pyridin-3-yl)-benzofuran-5-ol] had a half-maximal inhibitory concentration (IC50) of 46 nM.

`NC(=O)c1ccc(-c2cc3ccccc3o2)cn1` [5-(1-Benzofuran-2-yl)pyridine-2-carboxamide] had an IC50 of 19 nM.

As to `NC(=O)c1ccc(-c2cc3ccccc3s2)cn1` [5-(1-benzothien-2-yl)pyridine-2-carboxamide], the IC50 was found to be 30 nM.

For the compound `NC(=O)c1ccc(-c2cc3cc(O)ccc3o2)cn1` [5-(5-Hydroxy-benzofuran-2-yl)-pyridine-2-carboxylic acid amide], the IC50 turned out to be 600 nM.

Regarding `COc1ccc2oc(-c3ccc(C(N)=O)nc3)cc2c1` [5-(5-Methoxy-benzofuran-2-yl)-pyridine-2-carboxylic acid amide], the IC50 was found to be 61 nM.

`NC(=O)c1ccc(-c2cc3cc(O)ccc3o2)nc1` [6-(5-Hydroxy-benzofuran-2-yl)-nicotinamide] displayed an IC50 of 43 nM.

Compound `COc1ccc2oc(-c3ccc(C(N)=O)cn3)cc2c1` [6-(5-Methoxy-benzofuran-2-yl)-nicotinamide] yielded a 50% inhibitory concentration (IC50) of 33 nM.

`COc1ccc2oc(-c3ccc(N)nn3)cc2c1` [6-(5-Methoxy-benzofuran-2-yl)-pyridazin-3-ylamine] yielded a concentration for half-maximal inhibition (IC50) of 912 nM.

With `CNc1ccc(-c2cc3cc(OC)ccc3o2)cn1` [[5-(5-Methoxy-benzofuran-2-yl)-pyridin-2-yl]-methylamine], the IC50 came to 66 nM.

These data come from patent US7772256B2, “2-heteroaryl substituted benzothiophenes and benzofuranes 709” (Astrazeneca AB, priority 2007, dated 2010).
